Assays:
BMDM [1] = assay: NADPH level measurement in macrophages (BMDM); format: cell-based, mouse
Experimental: (§1) Bone marrow derived macrophages (hereinafter referred to as BMDM) were harvested, and according to the manufacturer's instructions, EnzyChrom NAD^+/NADHA assay Kit (Bioassay Systems, Hayward, CA, USA), Elite NADPH Assay Kit (eEnzyme, Gaithersburg, MD, USA) and Cell Titer-Glo® Luminescent Cell Viability assay (Promega, Madison, WI, USA) were used for analysis.
(§2) Since NAD^+ is an important cofactor in ATP production, ATP levels were measured during LPS treatment. […] However, the NADPH level in NAMPT-depleted macrophages was reduced by 21%.

BMDMs = assay: ROS measurement in LPS- and IFN-γ-activated BMDMs; format: cell-based, mouse; details: FIG. 13B
Experimental: BMDM or peritoneal macrophages were incubated with HBSS containing 5 μM CM-H2DCFDA (Invitrogen, Carlsbad, CA, USA) for 15 min at 37° C. To measure mitochondrial reactive oxygen species levels, cells were incubated with 5 μM MitoSOX (Invitrogen) for 15 minutes. FACS Canto II (BD) was used to monitor fluorescence levels.

BMDM [2] = assay: pHrodo green E. coli Bioparticles phagocytosis assay in BMDM; format: cell-based, mouse; details: for pHrodo intensity: BMDM of WT mice, FIG. 10B, 10D, 11B-11D
Experimental: (§3) pHrodo™ green-conjugated E. coli Bioparticles™ were diluted in serum medium, incubated for 30 minutes and washed twice with PBS. Cells were incubated for the time indicated in the manufacturer's instructions and analyzed using a FACS Canto II flow cytometer (BD) or fluorescence microscope (DFC3000G; Leica, Wetzlar, Germany).
(§4) Pulse and chase phagocytosis assays were performed using pHrodo green to compare phagocytic activity between macrophages of WT and KO mice. In FIG. 11A, there was an increase in the intensity of the green fluorescence signal in the BMDM of WT mice, indicating the gradual maturation and fusion of phagosomes containing pHrodo green with lysosomes.

RAW264.7 cells = assay: pHrodo green phagocytosis assay in RAW264.7 cells; format: cell-based; details: FIG. 10C, 10D, 11D
Experimental: as §3, §4

BMDM [3] = assay: M1/M2 macrophage polarization of BMDM (FACS, Western blot); format: cell-based, mouse
Experimental: The cell suspension of Example 4 was stained with various combinations of fluorochrome-conjugated antibodies on ice for 20 minutes under dark conditions, wherein the antibodies included anti-CD45 (30-F11), anti-CD1 lb (M1/70), anti-F4/80 (BM8), anti-Ly6G (1A8), anti-Ly6C (HK1.4), anti-MHC II (M5/114.15.2), anti-CD11c (N418), anti-CD206 (MMR) and anti-CD86 (GL-1) (all purchased from Biolegend, San Diego, CA, USA). Samples were obtained from the FACS Canto II Flow Cytometer (BD, Franklin Lakes, NJ, USA). Data were analyzed using FlowJo™ Software (BD).
Next, it was determined whether NAMPT is involved in the polarization of M1 and M2 macrophages.

Raw 264.7 cells = assay: ROS measurement in Raw 264.7 cells upon LPS; format: cell-based; details: FIG. 10H
BMDM [4] = assay: NAD+ level measurement in BMDM; format: cell-based, mouse
Experimental: as §1, §2

DSS-induced colitis = DSS-induced colitis model in NAMPT KO mice with NMN administration; format: in vivo, mouse
Excerpt: Nampt^f/f mice (C57BL6), which have two loxP sites adjacent to exon 5, were crossed with LyzM-Cre mice (C57BL6) to specifically knock out (KO) NAMPT in myeloid cell lineages including macrophages (Nampt^f/fLyzMCre^+/− mice; hereinafter referred to as KO mice). KO mice (heterozygous) were used as mice knocked out of bone marrow-specific NAMPT, and Nampt^f/f mice (wild type; hereinafter referred to as WT mice) were used as controls. The mice were stored at the Ajou University Laboratory Animal Research Center and preserved according to the guidelines of the Institution's Animal Care and Use Committee, which approved all animal procedures (2020-0013).
Age- and gender-matched WT mice and KO mice were administered with 2.5% DSS (MP Biomedicals, Santa Ana, CA, USA) for 7 days and then allowed to recover for 7 days. Colitis severity was determined daily through a scoring system based on the sum of scores for the following parameters: weight loss (0 points=no weight loss/weight gain, 1=5 to 10% weight loss, 2=11 to 15% weight loss, 3=16 to 20% weight loss, and 4=21% or more weight loss); stool consistency (score of 0=normal and well formed, 2=very soft and not formed, and 4=loose stool); and hemorrhagic stool score (0=normal colored stool, 2=red colored stool, 4=bloody stool). The disease activity index (DAI) ranged from 0 to 12.
Histology was scored blindly using a semi-quantitative scoring system based on the sum of scores for the following parameters: presence of ulceration: 0=none, 1=present but very slight, 2=minimal, 3=moderate, 4=widespread; presence of inflammation: 0=none, 1=minimal, 2=mild, 3=moderate, 4=severe; degree of inflammation: 0=none, 1=mucosal, 2=mucosal+submucosal, 3=mucosal+submucosal+muscle penetration, 4=full thickness invasion. Immunohistochemistry was performed using rabbit anti-NAMPT (Bethyl Laboratories, TX, USA), rabbit anti-Ki-67 (Abcam, Cambridge, UK), rabbit anti-cleaved caspase 3 (Cell Signaling Technology), mouse anti-CD326 (EpCAM)-APC (Invitrogen) and mouse anti-F4/80 (Abcam) antibodies.
Apoptosis was assessed by the TUNEL assay using the Apoptag plus in situ apoptosis fluorescein detection kit (Merck) according to the manufacturer's instructions. TUNEL positive signals were corrected to total nuclear signals for each field. The phagocytic cells were stained using the Apoptag ISOL dual fluorescence apoptosis detection kit (Millipore) according to the manufacturer's instructions. The stained samples were then incubated overnight with mouse anti-F4/80 antibodies. Fluorescence images were obtained by a confocal microscope (A1R HD25, Nikon, Tokyo, Japan) and a slide scanner (Axioscan, Zeiss, Germany).

[5] = mouse, in vivo
Excerpt: It was further elucidated whether there was any clear cytotoxic effect by NMN injection in mice.

[6] = macrophages of KO mice, NMN with/without 6AN, FIG. 12I
[7] = NAMPT KO mice, 2.5% DSS, 500 mg/kg i.p.

With `NC(=O)c1ccc(N)nc1` [6AN, 6-aminonicotinamide] the NADPH levels (BMDM [1]; 6AN during LPS challenge, FIG. 12J) was “further reduced NADPH levels”, the NADPH levels (BMDM [1]; [6]) was “blocked” and the NADPH levels (BMDM [1]; macrophages of WT mice, FIG. 12H) was “reduced NADPH levels in a dose-dependent manner”. For the same molecule, the ROS levels (BMDMs) was “decrease in ROS levels”.
With `CO/C1=C\C(C)=C\[C@@H](C)[C@@H](O)[C@@H](C)C/C(C)=C/C=C/[C@H](OC)[C@@H]([C@@H](C)[C@@H](O)[C@H](C)[C@@]2(O)C[C@@H](O)[C@H](C)[C@@H](C(C)C)O2)OC1=O` [Baf A1, bafilomycin A1] the pHrodo intensity (BMDM [2]) was “reduced the fluorescence intensity” and the pHrodo intensity (RAW264.7 cells) was “reduced the fluorescence intensity”.
With `O=C(/C=C/c1cccnc1)NCCCCC1CCN(C(=O)c2ccccc2)CC1` [FK866] the “polarization of M1 and M2 macrophages” value (BMDM [3]; BMDM treated with LPS/IFN-γ or IL-4, FACS, FIG. 7A, 7B) was “did not result in polarization of M1 and M2 macrophages”, the “expression of M1 and M2 macrophage-specific markers” value (BMDM [3]; Western blot, FIG. 7D) was “did not affect” and the pHrodo intensity (BMDM [2]) was “decreased”. The pHrodo intensity (RAW264.7 cells) was “reduced pHrodo intensity”, the ROS production (Raw 264.7 cells; response to LPS) was “partially inhibited” and the “NAD+ levels” value (BMDM [4]; FIG. 12B) was “significantly reduced”. For the same molecule, the “NAD+ levels” value (BMDM [4]; LPS treatment) was “further decrease” and the NADPH levels (BMDM [1]; in LPS treatment, FIG. 12G) was “further decrease in NADPH levels”.
For `NC(=O)c1ccc[n+]([C@@H]2O[C@H](COP(=O)([O-])O)[C@@H](O)[C@H]2O)c1` [NMN, nicotinamide mononucleotide], the pHrodo fluorescence intensity (BMDM [2]; BMDM of KO mice) was “restored fluorescence intensity”, the “NAD+ levels” value (BMDM [4]; after NAMPT knock out or FK866 treatment, FIG. 12B) was “restored the phenotype” and the NADPH levels (BMDM [1]; in LPS treatment, FIG. 12G) was “increased NADPH levels”. The NADPH levels (BMDM [1]; [6]) was “restored NADPH levels”, the NADPH levels (BMDM [1]; macrophages of KO mice, FIG. 12D, 12E) was “increased NADPH levels” and the survival (DSS-induced colitis; NAMPT KO mice, 2.5% DSS, 500 mg/kg NMN i.p. 3 times a week, 8 out of 12) was 67%. For the same molecule, the DAI (DSS-induced colitis; [7]) was “restored”, the weight loss (DSS-induced colitis; [7]) was “restored” and the “F4/80+ macrophage population” value (DSS-induced colitis; colon tissue, FIG. 14F) was “decrease”. For the same molecule, the “Ki-67+ cells” value (DSS-induced colitis; colon tissue, FIG. 14F) was “increased”, the “positive signals of TUNEL” value (DSS-induced colitis; colon tissue, FIG. 14F) was “decreased” and the “positive signals of cleaved caspase 3” value (DSS-induced colitis; colon tissue, FIG. 14F) was “decreased”. For the same molecule, the “abnormalities in the colon, liver and spleen at the microscopic level” value [5] was “no abnormalities”, the “serum ALT level” value [5] was “similar” and the “serum AST level” value [5] was “similar”.
In the case of `NC(=O)c1ccc[n+]([C@@H]2O[C@H](COP(=O)([O-])OP(=O)(O)OC[C@H]3O[C@@H](n4cnc5c(N)ncnc54)[C@H](O)[C@@H]3O)[C@@H](O)[C@H]2O)c1` [NAD^+, nicotinamide adenine dinucleotide], the “inhibitory effect of FK866 on ROS production” value (Raw 264.7 cells; LPS, FK866, NAD+ co-treatment) is reported as “recovered”.

Source: patent publication US12318402B2, “Composition for treating or preventing colitis by NAMPT metabolic regulation” (AJOU UNIVERSITY INDUSTRY-ACADEMIC COOPERATION FOUNDATION, priority 2021, dated 2025)
